ChEMBL document CHEMBL1201862, “PubChem BioAssay data set” (2004)
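Values below derive from 48-hour exposures of cells grown in 96-well plates, with endpoints linearly interpolated between the two concentrations bracketing the appropriate inhibition level. At the GI50, growth is halved.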 The source made the active and inactive calls. No stated cut-off is given here; in the data, active = GI50 up to about 1.1 µM and inactive = higher.

Columns and labels:
Assay in all cases: NCI-60 cell line screen, 48 h
OVCAR-5 = system: OVCAR-5
MDA-N = system: MDA-N
K562 = system: K562
PC-3 = system: PC-3
HOP-62 = system: HOP-62
UO-31 = system: UO-31
KM12 = system: KM12
MOLT-4 = system: MOLT-4
SN12C = system: SN12C
RPMI-8226 = system: RPMI-8226
A549 = system: A549
M14 = system: M14
SF-539 = system: SF-539
SNB-75 = system: SNB-75
MDA-MB-231 = system: MDA-MB-231
DU-145 = system: DU-145
MCF7 = system: MCF7
TK-10 = system: TK-10

| SMILES | GI50 (OVCAR-5) | GI50 (MDA-N) | GI50 (K562) | GI50 (PC-3) | GI50 (HOP-62) | GI50 (UO-31) | GI50 (KM12) | GI50 (MOLT-4) | GI50 (SN12C) | GI50 (RPMI-8226) | GI50 (A549) | GI50 (M14) | GI50 (SF-539) | GI50 (SNB-75) | GI50 (MDA-MB-231) | GI50 (DU-145) | GI50 (MCF7) | GI50 (TK-10) |
| --- | --- | --- | --- | --- | --- | --- | --- | --- | --- | --- | --- | --- | --- | --- | --- | --- | --- | --- |
| CCOC(=O)c1cc2cc([N+](=O)[O-])ccc2oc1=O | > 100 µM (inactive) | > 100 µM (inactive) | 41.2 µM (inactive) | > 100 µM (inactive) | > 100 µM (inactive) | 35.6 µM (inactive) | > 100 µM (inactive) | > 100 µM (inactive) | > 100 µM (inactive) | > 100 µM (inactive) | > 100 µM (inactive) | > 100 µM (inactive) | > 100 µM (inactive) | > 100 µM (inactive) | > 100 µM (inactive) | > 100 µM (inactive) | 62.1 µM (inactive) |  |
| ClC(Cl)(Cl)C1=N[C@H]2[C@H](Br)[C@@H]3O[C@@H](c4ccccc4)[C@H](c4ccccc4)O[C@@H]3[C@H]2O1 | 18.9 µM (inactive) | 20.3 µM (inactive) | 21.2 µM (inactive) | 16 µM (inactive) | 18.6 µM (inactive) | 20.7 µM (inactive) | 20.1 µM (inactive) | 18.2 µM (inactive) | 20.1 µM (inactive) | 16.2 µM (inactive) | 21.5 µM (inactive) | 23.8 µM (inactive) |  | 20.9 µM (inactive) | 23 µM (inactive) | 26.5 µM (inactive) | 17.3 µM (inactive) | 20.4 µM (inactive) |
| CCOP(=O)(CC(=O)C1CC1)OCC | > 100 µM (inactive) | > 100 µM (inactive) | > 100 µM (inactive) | > 100 µM (inactive) | > 100 µM (inactive) | > 100 µM (inactive) | > 100 µM (inactive) | > 100 µM (inactive) | > 100 µM (inactive) |  | > 100 µM (inactive) | > 100 µM (inactive) | > 100 µM (inactive) | > 100 µM (inactive) | > 100 µM (inactive) | > 100 µM (inactive) | > 100 µM (inactive) | > 100 µM (inactive) |
| c1ccc2c(c1)SCCCS2 | > 100 µM (inactive) | > 100 µM (inactive) | > 100 µM (inactive) | > 100 µM (inactive) | > 100 µM (inactive) | > 100 µM (inactive) | > 100 µM (inactive) | > 100 µM (inactive) | > 100 µM (inactive) |  | > 100 µM (inactive) | > 100 µM (inactive) | > 100 µM (inactive) | > 100 µM (inactive) | > 100 µM (inactive) | > 100 µM (inactive) | > 100 µM (inactive) | > 100 µM (inactive) |
| CCOC(=O)CCC(NC(=O)c1ccc(NCc2ccc3nc(-c4ccccc4)c(Cl)nc3c2)c2ccccc12)C(=O)OCC (configuration not stated) | > 100 µM (inactive) | > 100 µM (inactive) | 6.46 µM (inactive) | > 100 µM (inactive) | > 100 µM (inactive) | > 100 µM (inactive) | > 100 µM (inactive) | 0.977 µM (active) | > 100 µM (inactive) |  | > 100 µM (inactive) | > 100 µM (inactive) | > 100 µM (inactive) | > 100 µM (inactive) | > 100 µM (inactive) | > 100 µM (inactive) | 43.5 µM (inactive) | > 100 µM (inactive) |
| C#CC(O)/C=C/C(O)CCCC(O)CC#CC(O)C#CCCCCC(O)/C=C/CCCCCC(=O)CCCCCCCCCCCCCC(O)C(O)C#CC(=O)O (configuration not stated) | > 25 µM (inactive) | > 25 µM (inactive) | > 25 µM (inactive) | > 25 µM (inactive) | > 25 µM (inactive) | 11.5 µM (inactive) | > 25 µM (inactive) | 12.8 µM (inactive) | > 25 µM (inactive) | > 25 µM (inactive) | > 25 µM (inactive) | > 25 µM (inactive) |  | > 25 µM (inactive) | > 25 µM (inactive) | > 25 µM (inactive) | > 25 µM (inactive) | > 25 µM (inactive) |
